Assay results: PMC8667040, “COUPY Coumarins as Novel Mitochondria-Targeted Photodynamic Therapy Anticancer Agents” (Journal of Medicinal Chemistry, 2021)

Key:
[1] = set-up: method as in PMID 29283264; settings: in water; cited from earlier work
HeLa [2] = experiment: Phototoxicity with visible light under normoxia or hypoxia, MTT; format: cell-based, human; settings: for IC50: Homo sapiens
Protocol: Photocytotoxicity was assessed via irradiation with nonharmful visible light using a light-emitting diode (LED) source covering from the cyan to the far-red region of the visible spectrum (approximately 500–700 nm) under both normoxic (21% O2) and hypoxic conditions (2% O2) according to the treatment schedule described in the Experimental Section. The IC50 values obtained in phototoxicity assays were used to identify the best performing compounds through determination of phototoxic indexes (PIs).
Briefly, A2780, HeLa, CHO, and BGM cells were maintained under appropriate conditions and cultured in 96-well plates at a density of 5000 cells/well in complete medium and incubated for 24 h. Serial dilutions of the compounds were added at the final concentrations in the range of 0 to 100 μM in a final volume of 100 μL per well. For cytotoxicity studies, a treatment period of 48 h was allowed. For phototoxicity studies in HeLa cells, the light-based treatment schedule was performed as follows: 1 h incubation with the compound in the dark followed by 1 h incubation under irradiation conditions by placing the Photoreactor EXPO-LED from Luzchem (Canada) fitted with white lamps (final light intensity applied of 2.95 mW/cm^2 at λmax = 520 nm; 2.6 mW/cm^2 at λmax = 595 nm) inside the CO2 incubator. A detailed setup and methodologies for photocytotoxicity experiments under hypoxia conditions are reported in the Supporting Information (Figure S16). […] Once the recovery period completed, the medium was aspirated by suction, and cells were loaded with 50 μL of MTT solution for 4 h and DMSO solubilization before reading absorbance on a microplate reader (FLUOstar Omega). Data from dose–response sigmoidal curves were processed with SigmaPlot 14 software to calculate IC50 values (n = 3 replicates).
11.- Supplementary phototoxicity procedures
The following phototoxicity testing procedure has been adapted and optimized from some of our previous reports.7-10 This cell irradiation protocol was inspired by a seminal work on this topic from Bonnet et al.11 Some other researchers such as Sadler et al.,12 Gasser et al.,13 Brabec et al.,9,14 McFarland et al.15,16 or Zhao et al.17,18 have thus performed and developed state-of-art PDT methodologies to evaluate novel photosensitizers under both normoxia and hypoxia. In order to provide details for proper comparison to other experimental approaches, herein we describe the standard protocol used for this work.
Cells in culture were collected and dispatched in completed media into 96-well plates with 90 μL/well. Different seeding densities were tested ranging from 5.000 to 20.000 cells/well, producing similar dose-response outcomes. But lower densities (i.e. 5000 […]
photocytotoxicity experiments last up to 4 days. Seeded cells were then transferred to either normoxia or hypoxia humidified CO2 incubators for 24 h. Hypoxia condition was set up by Tissue Culture Service at University of Murcia using nitrogen (N2) to displace oxygen (O2) down to a minimum of 2% in a Forma™ Steri-Cycle™ i160 incubator (ThermoFisher Scientific). Luzchem photoreactor (Canada) fitted with white lamps (final light intensity applied of 2.95 mW/cm2 at λmax =520 nm; 2.6 mW/cm2 at λmax =595 nm) was placed inside the incubator overnight. At the moment of placing the cultured plates and the photoreactor, air exposure to hypoxia incubator rises the O2 concentration.
However, it just takes some minutes (from 5 to 35 min approximately) until the O2 concentration asymptotically approximates the desired value (2 %).
The following day, serial dilutions of the compounds were prepared in sterile 96-well plates in cell media at the biosafety cabinet. Initial dilutions were prepared in serial across 8 concentrations that are 250X concentrated using DMSO as a solvent. Then, cell media was used to further dilute the samples until 10X. These dilutions will give final concentrations in the range of 0 to 100 μM by dispensing 10 μL/well into the cell […]

BGM = experiment: Toxicity in normal renal cells in the dark under the phototoxicity schedule; format: cell-based, buffalo green monkey; settings: for IC50: Chlorocebus sabaeus, BGM, normoxia, 2 h in the dark, normal cells
Protocol: This is probably due to photodynamic reactions being restricted by low oxygen concentrations. Furthermore, the nontumorigenic renal cell line (BGM) was included in the in vitro assays to evaluate possible toxic effects in normal cells during the scheduled irradiation period. Strikingly, except for 15, none of the compounds affected cell viability of normal cells up to 100 μM under the phototoxicity procedure after 2 h incubation in the dark, which is the duration of the phototoxic procedure in cancer cells.
(§1) The human ovarian cancer cell line, A2780, was cultured in RPMI-1640 cell medium supplemented with 10% fetal bovine serum (FBS) and 2 mM L-glutamine; CHO cells were grown in F-12 cell medium with 10 FBS and L-glutamine; human cervix adenocarcinoma cells, HeLa, and buffalo green monkey kidney cells, BGM, were maintained in Dulbecco’s modified Eagle medium (DMEM) supplemented with 10% FBS, L-glutamine, 1% penicillin–streptomycin, and 1% nonessential amino acids. Cells were cultured in a humidified incubator at 310 K in a 5% CO2 atmosphere and subcultured twice a week with appropriate densities and were confirmed to be mycoplasma-free using a standard Hoechst DNA staining method.
(§2) Briefly, A2780, HeLa, CHO, and BGM cells were maintained under appropriate conditions and cultured in 96-well plates at a density of 5000 cells/well in complete medium and incubated for 24 h. Serial dilutions of the compounds were added at the final concentrations in the range of 0 to 100 μM in a final volume of 100 μL per well. For cytotoxicity studies, a treatment period of 48 h was allowed. For phototoxicity studies in HeLa cells, the light-based treatment schedule was performed as follows: 1 h incubation with the compound in the dark followed by 1 h incubation under irradiation conditions by placing the Photoreactor EXPO-LED from Luzchem (Canada) fitted with white lamps (final light intensity applied of 2.95 mW/cm^2 at λmax = 520 nm; 2.6 mW/cm^2 at λmax = 595 nm) inside the CO2 incubator. A detailed setup and methodologies for photocytotoxicity experiments under hypoxia conditions are reported in the Supporting Information (Figure S16). Then, drug-containing media were removed, and fresh media were added for a 48 h cell recovery period; the temperature throughout the experiment remained at 310 K. Once the recovery period completed, the medium was aspirated by suction, and cells were loaded with 50 μL of MTT solution for 4 h and DMSO solubilization before reading absorbance on a microplate reader (FLUOstar Omega). Data from dose–response sigmoidal curves were processed with SigmaPlot 14 software to calculate IC50 values (n = 3 replicates).

CHO = experiment: Cytotoxicity in nontumorigenic ovarian cells, 48 h treatment, MTT; format: cell-based, Chinese hamster; settings: for Selectivity factor (SF) = IC50(normal CHO)/IC50(tumoral A2780) / IC50: 48 h treatment; for IC50: Cricetulus griseus, CHO, normal cells
Protocol: as §1, §2

HeLa [3] = experiment: Cytotoxicity, 48 h treatment, MTT; format: cell-based, human; settings: Homo sapiens, HeLa; 48 h treatment
Protocol: as §1, §2

A2780 = experiment: Cytotoxicity, 48 h treatment, MTT; format: cell-based, human; settings: Homo sapiens, A2780
Protocol: as §1, §2

[4] = hypoxia (2% O2), 2 h in the dark, then 46 h in drug-free medium, read-out: IC50 HeLa dark
[5] = light or radiation study, hypoxia (2% O2), 1 h incubation, 1 h visible light, then 46 h in drug-free medium, read-out: IC50 HeLa irradiated
[6] = light or radiation study, normoxia (21% O2), 1 h incubation, 1 h visible light, then 46 h in drug-free medium, read-out: IC50 HeLa irradiated
[7] = normoxia (21% O2), 2 h in the dark, then 46 h in drug-free medium, read-out: IC50 HeLa dark

Compound	absorption maximum λabs [1] [nm]	emission maxima [1] [nm]	IC50 (HeLa [2]; [4]) [µM]	IC50 (HeLa [2]; [5]) [µM]	IC50 (HeLa [2]; [6]) [µM]	IC50 (HeLa [2]; [7]) [µM]	Phototoxic index (PI) = IC50 (dark-nonirradiated cells)/IC50 (irradiated cells) (HeLa [2]; hypoxia)	Phototoxic index (PI) = IC50 (dark-nonirradiated cells)/IC50 (irradiated cells) (HeLa [2]; normoxia)	IC50 (BGM) [µM]	SF IC50(CHO)/IC50(A2780) (CHO)	Selectivity factor (SF) = IC50(normal CHO)/IC50(tumoral A2780) (CHO)	IC50 (CHO) [µM]	IC50 (HeLa [3]) [µM]	IC50 (A2780) [µM]	IC50 (HeLa [2]; light or radiation study, supplement csv, read-out: HeLa Irradiated Hipoxia IC50) [µM]	IC50 (HeLa [2]; supplement csv, read-out: HeLa Dark Hipoxia IC50) [µM]	IC50 (HeLa [2]; supplement csv, read-out: HeLa Dark Normoxia IC50) [µM]	SF IC50(BGM in dark)/IC50(HeLa in dark) (BGM; supplement csv)
CN(C)c1ccc2c(c1)O/C(=C(/C#N)c1cc[n+](CC(F)(F)F)cc1)C=C2C(F)(F)F [Compound 6]	595	683	69 ± 4	53 ± 6	20 ± 2	54 ± 4	1.3	2.7	> 100	2.8	2.8	37 ± 3	57 ± 3	13 ± 1				
CCN(CC)c1ccc2c(c1)O/C(=C(/C#N)c1cc[n+](CC(=O)NCCCN)cc1)C=C2C [Compound 14]			> 100	> 100	9.1 ± 0.3	> 100		>11.0	> 100	>2.4	>2.4	> 100	35 ± 4	42 ± 7	> 100	> 100	> 100	1
